Data taken from paper PMC10134573 (Biochemistry, 2022).

T1: CheA WT (Tm CheA) (Thermotoga maritima, UniProt Q56310)
T1 sequence (Q56310 1-671): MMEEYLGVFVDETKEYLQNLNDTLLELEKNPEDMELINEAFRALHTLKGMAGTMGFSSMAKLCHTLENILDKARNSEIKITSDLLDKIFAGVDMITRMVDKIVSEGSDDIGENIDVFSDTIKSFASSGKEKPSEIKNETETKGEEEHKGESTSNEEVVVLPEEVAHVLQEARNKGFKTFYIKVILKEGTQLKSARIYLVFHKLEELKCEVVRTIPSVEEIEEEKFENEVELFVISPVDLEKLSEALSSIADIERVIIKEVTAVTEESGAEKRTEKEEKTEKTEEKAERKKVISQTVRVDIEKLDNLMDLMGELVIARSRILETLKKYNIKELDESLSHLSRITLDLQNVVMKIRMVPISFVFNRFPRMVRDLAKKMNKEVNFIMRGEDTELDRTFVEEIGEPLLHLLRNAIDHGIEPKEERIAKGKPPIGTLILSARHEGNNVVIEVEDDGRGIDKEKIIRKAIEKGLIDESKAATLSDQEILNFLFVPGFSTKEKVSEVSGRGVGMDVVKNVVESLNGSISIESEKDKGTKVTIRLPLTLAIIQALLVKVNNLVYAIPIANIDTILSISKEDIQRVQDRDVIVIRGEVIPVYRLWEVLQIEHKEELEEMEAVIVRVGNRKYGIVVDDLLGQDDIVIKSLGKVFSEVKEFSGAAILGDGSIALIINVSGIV


Legend:
CheA WT (Tm CheA) = molecular target: T1, CheA WT (Tm CheA); test: TNP-ATP displacement, fluorescence; type: binding
SEC + other: SAXS = molecular target: the molecule itself; test: SEC + other: SAXS

Molecule	IC50 (CheA WT (Tm CheA))	stoichiometry N (SEC + other: SAXS)
Nc1ncnc2c1ncn2[C@@H]1O[C@H](COP(=O)(O)OP(=O)(O)O)[C@@H](O)[C@H]1O [ADP]	405 ± 21 µM	
Thermotoga maritima CheA WT (enzyme, UniProt Q56310 1-671, looked up) MMEEYLGVFVDETKEYLQNLNDTLLELEKNPEDMELINEAFRALHTLKGMAGTMGFSSMAKLCHTLENILDKARNSEIKITSDLLDKIFAGVDMITRMVDKIVSEGSDDIGENIDVFSDTIKSFASSGKEKPSEIKNETETKGEEEHKGESTSNEEVVVLPEEVAHVLQEARNKGFKTFYIKVILKEGTQLKSARIYLVFHKLEELKCEVVRTIPSVEEIEEEKFENEVELFVISPVDLEKLSEALSSIADIERVIIKEVTAVTEESGAEKRTEKEEKTEKTEEKAERKKVISQTVRVDIEKLDNLMDLMGELVIARSRILETLKKYNIKELDESLSHLSRITLDLQNVVMKIRMVPISFVFNRFPRMVRDLAKKMNKEVNFIMRGEDTELDRTFVEEIGEPLLHLLRNAIDHGIEPKEERIAKGKPPIGTLILSARHEGNNVVIEVEDDGRGIDKEKIIRKAIEKGLIDESKAATLSDQEILNFLFVPGFSTKEKVSEVSGRGVGMDVVKNVVESLNGSISIESEKDKGTKVTIRLPLTLAIIQALLVKVNNLVYAIPIANIDTILSISKEDIQRVQDRDVIVIRGEVIPVYRLWEVLQIEHKEELEEMEAVIVRVGNRKYGIVVDDLLGQDDIVIKSLGKVFSEVKEFSGAAILGDGSIALIINVSGIV		2
